The values below come from US10370356B2, “Pyridinone dicarboxamide for use as bromodomain inhibitors” (GlaxoSmithKline Intellectual Property (No. 2) Limited, priority 2015, dated 2019).

Structures are written as SMILES. Structures can show the parent of a compound that is named as a salt.

The target in the first assay is T1, BRD4 BD2 (Homo sapiens, UniProt O60885, Y97A).
T1 construct: BRD4 (1-477) (Y97A) and (Y390A); made in house; host or cells: E. coli (pET15b vector)
Put plainly: BRD4 BD2 mutant TR-FRET competition assay. Type of assay: binding. Particulars: read-out: pIC50 in the BRD4 BD2 assay (converted). On the technique in general: TR-FRET usually uses a lanthanide donor and a delayed reading to cut background.
`CNC(=O)c1cc(C(=O)NCCC2CCN(C)C2)cn(Cc2ccccc2)c1=O` (stereo not shown) [Example 36, 1-Benzyl-N^3-methyl-N^5-(2-(1-methylpyrrolidin-3-yl)ethyl)-2-oxo-1,2-dihydropyridine-3,5-dicarboxamide]: the IC50 is 100 to 1000 nM.
Consider `CNC(=O)c1cc(C(=O)NCCC2CN(C)CCO2)cn(Cc2ccccc2)c1=O` (stereo not shown) [Example 64, 1-benzyl-N^3-methyl-N^5-(2-(4-methylmorpholin-2-yl)ethyl)-2-oxo-1,2-dihydropyridine-3,5-dicarboxamide], for which the IC50 is 100 to 1000 nM.
Regarding `CNC(=O)c1cc(C(=O)N[C@H]2[C@@H]3COC[C@@H]32)cn(Cc2ccccc2)c1=O` [Example 69, 1-Benzyl-N^5-((1R,5S,6r)-3-oxabicyclo[3.1.0]hexan-6-yl)-N^3-methyl-2-oxo-1,2-dihydropyridine-3,5-dicarboxamide], the IC50 was at most 100 nM.
Same read-out and setting: then `CNC(=O)c1cc(C(=O)NCCC2CCCN(C(=O)OC(C)(C)C)C2)cn(Cc2ccccc2)c1=O` (stereo not shown) [Example 38, tert-Butyl 3-(2-(1-benzyl-5-(methylcarbamoyl)-6-oxo-1,6-dihydropyridine-3-carboxamido)ethyl)piperidine-1-carbxylate], with 1000 to 100000 nM; and `CNC(=O)c1cc(C(=O)NCCOC2CCNC2)cn(Cc2ccccc2)c1=O` (stereo not shown) [Example 67, 1-benzyl-N3-methyl-2-oxo-N5-(2-(pyrrolidin-3-yloxy)ethyl)-1,2-dihydropyridine-3,5-dicarboxamide, hydrochloride], with 100 to 1000 nM; and `CNC(=O)c1cc(C(=O)NCCCC2CCNCC2)cn(Cc2cccc(C)c2F)c1=O` [Example 26, 1-(2-Fluoro-3-methylbenzyl)-N^3-methyl-2-oxo-N^5-(3-(piperidin-4-yl)propyl)-1,2-dihydropyridine-3,5-dicarboxamide], with at most 100 nM.
Still for that read-out and setting: then `CNC(=O)c1cc(C(=O)N[C@H]2[C@@H]3CN(CCNC(=O)OC(C)(C)C)C[C@@H]32)cn(Cc2cccc3[nH]ccc23)c1=O` [Example 85, tert-Butyl (2-((1R,5S,6s)-6-(1-((1H-indol-4-yl)methyl)-5-(methylcarbamoyl)-6-oxo-1,6-dihydropyridine-3-carboxamido)-3-azabicyclo[3.1.0]hexan-3-yl)ethyl)carbamate], with at most 100 nM.
For `CNC(=O)c1cc(C(=O)NCCCC2CCNCC2)cn(Cc2ccc(F)c(C)c2)c1=O` [Example 21, 1-(4-Fluoro-3-methylbenzyl)-N^3-methyl-2-oxo-N^5-(3-(piperidin-4-yl)propyl)-1,2-dihydropyridine-3,5-dicarboxamide], the IC50 was at most 100 nM.
Still for that read-out and setting: the result for `CNC(=O)c1cc(C(=O)NCCCC2CCN(CC(F)(F)F)CC2)cn(Cc2ccccc2)c1=O` [Example 10] reads at most 100 nM; that for `CNC(=O)c1cc(C(=O)NCCCC2CCNCC2)cn(Cc2cccc(OC)c2)c1=O` [Example 19, 1-(3-Methoxybenzyl)-N^3-methyl-2-oxo-N^5-(3-(piperidin-4-yl)propyl)-1,2-dihydropyridine-3,5-dicarboxamide], at most 100 nM.
The same measure, in the same setting: the result for `CNC(=O)c1cc(C(=O)NCCC2CCNCC2)cn(Cc2cccc(OCCO)c2)c1=O` [Example 24, 1-(3-(2-Hydroxyethoxy)benzyl)-N^3-methyl-2-oxo-N^5-(2-(piperidin-4-yl)ethyl)-1,2-dihydropyridine-3,5-dicarboxamide] reads at most 100 nM; that for `CNC(=O)c1cc(C(=O)NCCC2CCCOC2)cn(Cc2ccccc2)c1=O` (stereo not shown) [Example 31, 1-Benzyl-N^3-methyl-2-oxo-N^5-(2-(tetrahydro-2H-pyran-3-yl)ethyl)-1,2-dihydropyridine-3,5-dicarboxamide], 100 to 1000 nM.
The same measure, in the same setting: the result for `CNC(=O)c1cc(C(=O)NC2CCS(=O)(=O)C2)cn(Cc2ccccc2)c1=O` (stereo not shown) [Example 43, 1-Benzyl-N^5-(1,1-dioxidotetrahydrothiophen-3-yl)-N^3-methyl-2-oxo-1,2-dihydroypridine-3,5-dicarboxamide] reads 100 to 1000 nM; that for `CNC(=O)c1cc(C(=O)NC[C@H]2CCCOC2)cn(Cc2ccccc2)c1=O` [Example 46, (R)-1-Benzyl-N^3-methyl-2-oxo-N^5-((tetrahydro-2H-pyran-3-yl)methyl)-1,2-dihydropyridine-3,5-dicarboxamide], 100 to 1000 nM; that for `CNC(=O)c1cc(C(=O)NCCC2CCOC2)cn(Cc2ccccc2)c1=O` (stereo not shown) [Example 9, 1-Benzyl-N^3-methyl-2-oxo-N^5-(2-(tetrahydrofuran-3-yl)ethyl)-1,2-dihydropyridine-3,5-dicarboxamide], 100 to 1000 nM.
For the compound `CNC(=O)c1cc(C(=O)N[C@H]2[C@@H]3CN(C(=O)OC(C)(C)C)C[C@@H]32)cn(Cc2ccccc2)c1=O` [Example 75, (1R,5S,6s)-Tert-butyl 6-(1-benzyl-5-(methylcarbamoyl)-6-oxo-1,6-dihydropyridine-3-carboxamido)-3-azabicyclo[3.1.0]hexane-3-carboxylate], the IC50 is at most 100 nM.
`CNC(=O)c1cc(C(=O)NCCC2CCS(=O)(=O)CC2)cn(Cc2ccccc2)c1=O` [Example 13, 1-Benzyl-N^5-(2-(1,1-dioxidotetrahydro-2H-thiopyran-4-yl)ethyl)-N^3-methyl-2-oxo-1,2-dihydropyridine-3,5-dicarboxamide]: the IC50 is 100 to 1000 nM.
The same measure, in the same setting: the result for `CNC(=O)c1cc(C(=O)NCCCC2CCNCC2)cn(Cc2ccc(F)cc2)c1=O` [Example 22, 1-(4-Fluorobenzyl)-N^3-methyl-2-oxo-N-(3-(piperidin-4-1)propyl)-1,2-dihydropyridine-3,5-dicarboxamide] reads at most 100 nM.
Same read-out and setting: then `CNC(=O)c1cc(C(=O)NCCCN2CCCCC2)cn(Cc2ccccc2)c1=O` [Example 45, 1-Benzyl-N^3-methyl-2-oxo-N^5-(3-(piperidin-1-yl)propyl)-1,2-dihydropyridine-3,5-dicarboxamide hydrochloride], with 100 to 1000 nM; and `CNC(=O)c1cc(C(=O)NCC2CCS(=O)(=O)C2)cn(Cc2ccccc2)c1=O` (stereo not shown) [Example 48, 1-Benzyl-N^5-((1,1-dioxidotetrahydrothiophen-3-yl)methyl)-N^3-methyl-2-oxo-1,2-dihydropyridine-3,5-dicarboxamide], with 1000 to 100000 nM.

Another assay relates to BET family (BRD2, BRD3, BRD4 and BRDT) tandem bromodomain proteins. Description: Fluorescence Polarisation binding of Reference Compound X to single and double mutant tandem BET proteins. Also on record: species or system Human. The note with it: double mutant tandem proteins versus non mutated, wild type tandem BET proteins. The procedure: The competition of the compounds of formula (I) with Reference Compound X for binding to the BET family (BRD2, BRD3, BRD4 and BRDT) was assessed using protein truncates spanning both bromodomain 1 (BD1) and bromodomain 2 (BD2). In order to monitor differential binding to either BD1 or BD2, single residue mutations of key tyrosines to alanine were made in the acetyl lysine binding pockets. To validate this approach, a double residue mutant tandem domain protein was produced for each of the BET family members. Utilising a Fluorescence Polarisation approach, binding affinities for each of the single and double mutants for Reference Compound X were determined. […] The affinities of the single mutated bromdomain tandem proteins for Reference Compound X were equi-potent with the corresponding non-mutated BET protein. […] In the TR-FRET competition assay, Reference Compound X is used at a concentration that is equivalent to the Kd for the non-mutated bromodomain, which ensures that no binding at the mutated bromodomain is detected. […]
Consider `COc1ccc2c(c1)C(c1ccc(Cl)cc1)=N[C@@H](CC(=O)NCCCCCNC(=O)CCCCCC1(C)/C(=C/C=C/C=C/C3=[N+](CCCCS(=O)(=O)O)c4ccc(S(=O)(=O)O)cc4C3(C)C)N(CCCCS(=O)(=O)[O-])c3ccc(S(=O)(=O)O)cc31)c1nnc(C)n1-2` (stereo partly shown) [Reference Compound X], for which the “reduction in Kd” value is given as above 1000 fold.

Staying with this assay, now noted: single mutations of Tyrosine to Alanine.
As for `COc1ccc2c(c1)C(c1ccc(Cl)cc1)=N[C@@H](CC(=O)NCCCCCNC(=O)CCCCCC1(C)/C(=C/C=C/C=C/C3=[N+](CCCCS(=O)(=O)O)c4ccc(S(=O)(=O)O)cc4C3(C)C)N(CCCCS(=O)(=O)[O-])c3ccc(S(=O)(=O)O)cc31)c1nnc(C)n1-2` (stereo partly shown) [Reference Compound X], the “reduction of the Kd of the interaction between the mutated bromodomain and Reference Compound X” value was above 1000 fold.
